{"source": "patent US4216209A", "about": "“Tripeptide angiotensin converting enzyme inhibitors” (American Home Products Corporation, priority 1979, dated 1980)", "test_system": "spontaneously hypertensive rat (SHR)", "assay": "Antihypertensive test in conscious spontaneously hypertensive rats: arterial BP and pressor/depressor responses to i.v. angiotensin I and bradykinin after oral dosing", "type": "in vivo", "conditions": "male SHR, 50 mg/kg of body weight", "excerpt": "Male SHR of the Okamoto-Aoki strain (purchased from Charles River Lakeview, Boston, Mass.) ranging in weight between 280 and 370 g are anesthetized with diethyl ether. Their left femoral arteries and veins are cannulated with polyethylene tubing of the appropriate size. Each animal is then placed in a rubber mesh jacket which is secured with four towel clamps. The animal is suspended via the towel clamps from a bar and allowed to recover from the anesthesia. The arterial cannula is connected to a Statham pressure transducer (Model P23, Gould Statham Instruments, Hato Rey, Porto Rico) which, in turn, is attached to a polygraph for recording arterial blood pressure (BP) and pulse rate.\nWhen the BP has stabilized, the intravenous injection of the agonists, angiotensin I (AI) or bradykinin (B) is initiated. Each of the agonists is prepared daily from refrigerated stock solution (using distilled water as the diluent), and injected in a volume of 1 ml/kg (using physiological saline as the diluent) at the following doses: AI, 0.125 μg/kg and B, 5 μg/kg.\nEnough time is allowed for the BP to return to preinjection levels before the next agonist is given. A dose of the compound to be tested is given orally seven to ten minutes after the injection of the last agonist. Four rats are used and the test compound is given by gastric gavage in a volume of 5 ml/kg of body weight. Heart rate and BP are measured at 5, 10, 15, 30, 45 and 60 minutes and at hourly intervals thereafter for a period of at least four hours after drug administration. At one and two hours after the test compound has been given, AI and B are injected again at the same concentration and in the same order as during the control period.", "note": "Non-standard residues stand in square brackets, D forms with d. Residues, ends and D or L forms follow the SMILES beside them. Mpa = O=C(O)CCS", "data": [{"smiles": "CC(C)C[C@H](NC(=O)[C@H](Cc1c[nH]cn1)NC(=O)[C@@H]1CCCN1C(=O)CCS)C(=O)O", "note": "[N-[N-[1-(3-Mercapto-1-oxopropyl)prolyl]histidyl]leucine] ([Mpa]PHL-OH)", "values": [{"measurement": "decrease in mean arterial BP", "setting": "oral (gastric gavage), measured two hours after administration", "result": 8, "unit": "%"}, {"measurement": "reduction in angiotensin I response on BP", "setting": "oral, angiotensin I 0.125 μg/kg i.v.", "result": 61, "unit": "%"}, {"measurement": "potentiation of bradykinin response", "setting": "oral, bradykinin 5 μg/kg i.v.", "result": 564, "unit": "%"}]}]}
